We go through two compounds from patent publication US20110223149A1, “PEPTIDOMIMETIC MACROCYCLES” (AILERON THERAPEUTICS, INC., priority 2009, published 2011).

Where a SMILES comes first, the peptide text is derived from it. Bridges are numbered along the chain shown (N, C = ends). [ ]: non-standard residue; d: D form. S5 = C=CCCC[C@](C)(N)C(=O)O

One data set has as its target Bcl-xL (Homo sapiens, UniProt Q07817). As to the kind of experiment: Protein-ligand binding experiment by SEC-LC-MS. The following applies: 1 μM SP-4 and 5 μM Bcl-xL, 60 min at room temperature. As for the experimental part:
Protein-ligand binding experiments for Bcl-xL. Simple protein-ligand binding experiments were conducted using the following representative procedure outlined for a simple system-wide control experiment using 1 μM SP-4 and 5 μM Bcl-xL. A 1 μL, DMSO aliquot of a 40 μM stock solution of SP-4 is dissolved in 19 μL of PBS (Phosphate-buffered saline: 50 mM, pH 7.5 Phosphate buffer containing 150 mM NaCl). The resulting solution is mixed by repeated pipetting and clarified by centrifugation at 10 000 g for 10 min. To a 4 μL, aliquot of the resulting supernatant is added 4 μL, of 10 μM BCL-xL in PBS. Each 8.0 μL experimental sample thus contains 40 pmol (1.5 μg) of protein at 5.0 μM concentration in PBS plus 1 μM SP-4 and 2.5% DMSO. Duplicate samples thus prepared for each concentration point are incubated for 60 min at room temperature, and then chilled to 4° C. prior to size-exclusion chromatography-LC-MS analysis of 5.0 μL injections. Samples containing a target protein, protein-ligand complexes, and unbound compounds are injected onto an SEC column, where the complexes are separated from non-binding component by a rapid SEC step. The SEC column eluate is monitored using UV detectors to confirm that the early-eluting protein fraction, which elutes in the void volume of the SEC column, is well resolved from unbound components that are retained on the column. […]
In general terms: In gel filtration, larger molecules generally elute earlier.

Another data set has as its target Cathepsin D (Homo sapiens, UniProt P07339). The format is in vitro ADME. The following applies: pH 4.4. As for the experimental part:
For identification of Cathepsin B, D, and L metabolism, parent cross-linked peptide and positive control linear peptide (4 mM each in DMSO) was separately aliquoted (5 μL) to 1 mL volumes of 67 mM ammonium acetate solutions buffered either to pH 5.4 (cat B, L) and add 10 mM DTT, or to pH 4.4 (cat D) and add 0.117M KCl. Single enzyme working solution (10 μg/mL) was then added (40 μL) to each peptide solution (20 μM) to yield initial weight ratio (%) of 1:20 for each enzyme and peptide pair. Each mixture was placed in a 38-40° C. oven for incubation times of 30 and 60 min. At each time point, the reaction was stopped by addition of 500 μL of 48:48:2 v/v(%) hexafluoro-2-propanol/acetonitrile/TFA. A biphasic mixture formed after mixing and the bottom layer liquid was diluted (1:10) into acetonitrile: water and subsequently injected in duplicate for gradient LC/Ion Mobility TOF-MS analyses.
Ion mobility-MS and MS-MS analysis and peptide sequencing were performed on a Waters (Milford, Mass.) Synapt high-resolution ion-mobility-time-of flight mass spectrometer. Samples were prepared by dilution of the unpurified cross-linked peptide proteolysis product samples 10-fold into 1:1 acetonitrile-water containing 0.1% formic acid. LC-MS analyses were performed by reverse-phase gradient elution with 0.1% formic acid and 0.1% formic acid in acetonitrile as eluants at 500 μL/min. […]

Cathepsin D, sequence (P07339 65-412, species assumed): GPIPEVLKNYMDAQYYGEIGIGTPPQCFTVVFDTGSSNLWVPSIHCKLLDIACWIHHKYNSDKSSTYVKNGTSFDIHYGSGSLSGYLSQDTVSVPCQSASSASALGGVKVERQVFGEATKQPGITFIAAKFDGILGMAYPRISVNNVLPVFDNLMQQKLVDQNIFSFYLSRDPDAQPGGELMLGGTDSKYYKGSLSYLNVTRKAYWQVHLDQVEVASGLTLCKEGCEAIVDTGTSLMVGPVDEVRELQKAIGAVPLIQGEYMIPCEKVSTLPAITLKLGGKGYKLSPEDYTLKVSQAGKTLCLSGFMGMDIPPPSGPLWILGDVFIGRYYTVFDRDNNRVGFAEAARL
Bcl-xL, sequence (Q07817 whole entry, species assumed): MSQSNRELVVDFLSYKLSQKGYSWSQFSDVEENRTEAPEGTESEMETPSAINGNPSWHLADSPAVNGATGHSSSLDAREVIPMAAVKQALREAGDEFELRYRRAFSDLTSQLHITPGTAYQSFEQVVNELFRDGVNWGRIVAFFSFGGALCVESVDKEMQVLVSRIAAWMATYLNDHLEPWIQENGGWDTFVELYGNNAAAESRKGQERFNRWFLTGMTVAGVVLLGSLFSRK

With Ac-IWIAQALR$IGD$FNAYYARR-NH2 [SP-4], the “detection of protein-ligand complex with Bcl-xL” value on Bcl-xL is “detection of the protein-ligand complex”.

Regarding `CC[C@H](C)[C@H](NC(=O)[C@H](Cc1c[nH]c2ccccc12)NC(=O)[C@H](CCCNC(=N)N)NC(C)=O)C(=O)N[C@@H](C)C(=O)N[C@@H](CCC(N)=O)C(=O)N[C@@H](C)C(=O)N[C@@H](CC(C)C)C(=O)N[C@@H](CCCNC(=N)N)C(=O)N[C@@]1(C)CCC/C=C\CCC[C@@](C)(C(=O)N[C@@H](Cc2ccccc2)C(=O)N[C@@H](CC(N)=O)C(=O)N[C@@H](C)C(=O)N[C@@H](Cc2ccccc2)C(=O)N[C@@H](Cc2ccc(O)cc2)C(=O)N[C@@H](C)C(=O)N[C@@H](CCCNC(=N)N)C(=O)N[C@@H](CCCNC(=N)N)C(N)=O)NC(=O)[C@H](CC(=O)O)NC(=O)CNC(=O)[C@H]([C@@H](C)CC)NC1=O` [SP-1, Ac-RWIAQALR$IGD$FNAFYARR-NH2] (Ac-RWIAQALR[S5]IGD[S5]FNAFYARR-NH2; staple (Z) 9-13), the “cleavage site by cathepsin-D (proteolysis products)” value on Cathepsin D was “at F—Y residues”.
